Assay results reported in the supplement of paper PMC8617591.

Experiments:
[1] = tested on: Mycobacterium tuberculosis Erdman (autoluminescent); experiment: total FIC50 (Loewe) at 50% inhibition, three-drug combination (log2); higher = more antagonistic
Description: (§1)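 DiaMOND equipotent three-drug combination dose responses (10 doses, 1.5- or 2-fold spacing, centred on IC90) against autoluminescent M. tuberculosis Erdman in 8 in vitro models. Read-out is OD600, or luminescence for the intracellular and dormancy models, normalised to untreated wells. Hill-fit Einf, AUC25 and GRinf are potency metrics; FIC50 and FIC90 are total Loewe fractional inhibitory concentrations as log2 (negative = synergy).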

[2] = tested on: Mycobacterium tuberculosis Erdman (autoluminescent); experiment: total FIC90 (Loewe) at 90% inhibition, three-drug combination (log2); higher = more antagonistic
Description: as §1

[3] = tested on: Mycobacterium tuberculosis Erdman (autoluminescent); experiment: Einf, fitted maximum growth inhibition of three-drug combination (fraction); higher = stronger maximal inhibition
Description: as §1

[4] = tested on: Mycobacterium tuberculosis Erdman (autoluminescent); experiment: AUC25, normalised area under dose response up to IC25 (three-drug combination) (fraction (0-1)); higher = more potent at low dose
Description: as §1

[5] = tested on: Mycobacterium tuberculosis Erdman (autoluminescent); experiment: GRinf, maximum normalised growth rate inhibition (three-drug combination) (unitless (-1 to 1)); higher = less effect (negative = killing)
Description: as §1

CC(C)/N=c1\cc2n(-c3ccc(Cl)cc3)c3ccccc3nc-2cc1Nc1ccc(Cl)cc1 [clofazimine] + NC(=O)c1cnccn1 [pyrazinamide] + CO[C@H]1/C=C/O[C@@]2(C)Oc3c(C)c(O)c4c(O)c(c(/C=N/N5CCN(C6CCCC6)CC5)c(O)c4c3C2=O)NC(=O)/C(C)=C\C=C\[C@H](C)[C@H](O)[C@@H](C)[C@@H](O)[C@@H](C)[C@H](OC(C)=O)[C@@H]1C [rifapentine]
Conditions	AUC25, [4]	Einf, [3]	GRinf, [5]	total FIC50, [1]	total FIC90, [2]
in vitro model: acidic pH 5.7, time point: constant (~7 days, model-specific)	0.0912	0.872	-0.0882	-0.248	–
in vitro model: acidic pH 5.7, time point: terminal (~4-5 doublings, model-specific)	0.0866	0.992	-0.166	-0.185	-0.282
in vitro model: intracellular J774, time point: constant = terminal	–	0.987	-0.31	–	-0.162

Conditions	AUC25, [4]	Einf, [3]	GRinf, [5]	total FIC50, [1]	total FIC90, [2]
in vitro model: butyrate, time point: constant (~7 days, model-specific)	0.112	0.934	-0.137	0.135	0.657
in vitro model: butyrate, time point: terminal (~4-5 doublings, model-specific)	0.0906	0.969	-0.0833	0.161	0.364
in vitro model: cholesterol 0.05 mM, time point: constant (~7 days, model-specific)	0.142	0.621	-0.201	–	–
in vitro model: cholesterol 0.05 mM, time point: terminal (~4-5 doublings, model-specific)	0.111	0.899	-0.27	0.876	–
in vitro model: cholesterol-high 0.2 mM, time point: constant (~7 days, model-specific)	0.121	0.905	-0.547	0.527	–
in vitro model: cholesterol-high 0.2 mM, time point: terminal (~4-5 doublings, model-specific)	0.0971	0.984	-0.634	0.828	0.832
in vitro model: dormancy (butyrate + nitrate, low O2), time point: constant (~7 days, model-specific)	0.0828	0.929	0.0852	-0.285	-1.22
in vitro model: dormancy (butyrate + nitrate, low O2), time point: terminal (~4-5 doublings, model-specific)	0.0573	0.993	-0.269	-0.0992	0.0246
in vitro model: standard 7H9 glycerol, time point: constant = terminal	0.115	0.936	-0.0744	-0.0271	–
in vitro model: valerate, time point: constant (~7 days, model-specific)	0.118	0.911	-0.101	0.0622	–
in vitro model: valerate, time point: terminal (~4-5 doublings, model-specific)	0.0526	0.901	0.0624	0.391	1.33

CC(C)/N=c1\cc2n(-c3ccc(Cl)cc3)c3ccccc3nc-2cc1Nc1ccc(Cl)cc1 [clofazimine] + NC(=O)c1cnccn1 [pyrazinamide] + CO[C@H]1/C=C/O[C@@]2(C)Oc3c(C)c(O)c4c(O)c(c(/C=N/N5CCN(C)CC5)c(O)c4c3C2=O)NC(=O)/C(C)=C\C=C\[C@H](C)[C@H](O)[C@@H](C)[C@@H](O)[C@@H](C)[C@H](OC(C)=O)[C@@H]1C [rifampicin]
Conditions	AUC25, [4]	Einf, [3]	GRinf, [5]	total FIC50, [1]	total FIC90, [2]
in vitro model: acidic pH 5.7, time point: constant (~7 days, model-specific)	0.0832	0.905	-0.142	-0.249	–
in vitro model: acidic pH 5.7, time point: terminal (~4-5 doublings, model-specific)	0.0739	0.988	-0.217	-0.174	-0.451
in vitro model: intracellular J774, time point: constant = terminal	–	0.995	-0.387	–	-0.136

Conditions	AUC25, [4]	Einf, [3]	GRinf, [5]	total FIC50, [1]	total FIC90, [2]
in vitro model: butyrate, time point: constant (~7 days, model-specific)	0.115	0.918	-0.091	0.234	0.505
in vitro model: butyrate, time point: terminal (~4-5 doublings, model-specific)	0.0935	0.967	-0.0615	0.0552	0.0714
in vitro model: cholesterol 0.05 mM, time point: constant (~7 days, model-specific)	0.122	0.657	-0.00769	–	–
in vitro model: cholesterol 0.05 mM, time point: terminal (~4-5 doublings, model-specific)	0.106	0.894	-0.15	1.2	–
in vitro model: cholesterol-high 0.2 mM, time point: constant (~7 days, model-specific)	0.113	0.864	-0.605	1.06	–
in vitro model: cholesterol-high 0.2 mM, time point: terminal (~4-5 doublings, model-specific)	0.107	1	-0.764	1.43	1.53
in vitro model: dormancy (butyrate + nitrate, low O2), time point: constant (~7 days, model-specific)	0.0887	0.949	0.12	-0.433	-1.62
in vitro model: dormancy (butyrate + nitrate, low O2), time point: terminal (~4-5 doublings, model-specific)	0.0801	0.994	-0.455	-0.413	0.318
in vitro model: standard 7H9 glycerol, time point: constant = terminal	0.114	0.935	0.0256	-0.361	–
in vitro model: valerate, time point: constant (~7 days, model-specific)	0.106	0.813	0.205	0.653	–
in vitro model: valerate, time point: terminal (~4-5 doublings, model-specific)	0.0497	0.896	0.165	0.53	1.88

CC(C)/N=c1\cc2n(-c3ccc(Cl)cc3)c3ccccc3nc-2cc1Nc1ccc(Cl)cc1 [clofazimine] + NNC(=O)c1ccncc1 [isoniazid] + CC(=O)NC[C@H]1CN(c2ccc(N3CCOCC3)c(F)c2)C(=O)O1 [linezolid]
Conditions	AUC25, [4]	Einf, [3]	GRinf, [5]	total FIC50, [1]	total FIC90, [2]
in vitro model: acidic pH 5.7, time point: constant (~7 days, model-specific)	0.0908	0.806	-0.134	0.331	–
in vitro model: acidic pH 5.7, time point: terminal (~4-5 doublings, model-specific)	0.0672	0.939	-0.192	0.773	-0.102
in vitro model: intracellular J774, time point: constant = terminal	–	0.833	0.168	–	0.492

Conditions	AUC25, [4]	Einf, [3]	GRinf, [5]	total FIC50, [1]	total FIC90, [2]
in vitro model: butyrate, time point: constant (~7 days, model-specific)	0.113	0.954	-0.181	0.73	1.87
in vitro model: butyrate, time point: terminal (~4-5 doublings, model-specific)	0.0763	0.977	-0.106	0.921	1.01
in vitro model: cholesterol 0.05 mM, time point: constant (~7 days, model-specific)	0.133	0.689	-0.0122	-0.374	–
in vitro model: cholesterol 0.05 mM, time point: terminal (~4-5 doublings, model-specific)	0.141	0.902	-0.198	4.56	0.951
in vitro model: cholesterol-high 0.2 mM, time point: constant (~7 days, model-specific)	0.124	0.934	-0.48	0.36	1.56
in vitro model: cholesterol-high 0.2 mM, time point: terminal (~4-5 doublings, model-specific)	0.109	1	-0.827	0.186	0.424
in vitro model: dormancy (butyrate + nitrate, low O2), time point: constant (~7 days, model-specific)	0.0763	0.914	0.0823	1.56	1.18
in vitro model: dormancy (butyrate + nitrate, low O2), time point: terminal (~4-5 doublings, model-specific)	0.0355	0.972	-0.074	1.16	0.734
in vitro model: standard 7H9 glycerol, time point: constant = terminal	0.126	0.959	-0.237	0.207	0.757
in vitro model: valerate, time point: constant (~7 days, model-specific)	0.128	0.885	-0.0388	0.318	–
in vitro model: valerate, time point: terminal (~4-5 doublings, model-specific)	0.0875	0.934	0.0843	0.0839	1.21
